From US20200255884A1, “METHOD OF DETECTION OF DNA END(S) AND ITS USE” (INTODNA SP. Z O.O., priority 2017, published 2020)

System: HeLa 21-4 cells
Assay: DNA ends detection in fixed HeLa cells subjected to damaging agents (H2O2, Tpt), Procedure 1
Format: cell-based
Settings: 30 min at 37 °C, H2O2 4 mM, Tpt 20 μM
Description: Procedure: • 1. Pre-preparation (optional): • Incubation of live cells with 0.5-10 mM Tris (5 min-1 h at room temperature (RT)), cells should be monitored for morphological abnormalities. • 2. Fixation and permeabilization: • a. Incubation with 1%-4% formaldehyde solution, 10-15 min, 4° C. (optional) • b. Incubation with an […] detergent (e.g. Triton X-100 (0.25-3%) 10 min-1 h, RT. (optional) • c. Incubation in 70% ethanol in water, 1 h minimum but preferred 12-18 h, −20° C., sample should be stable for several months. (optional but most preferred) • 3. Pre-blocking (optional): • a. Wash (PBS 1×5 min) • b. Streptavidin solution—incubation performed on a droplet, 30 min, RT • c. Wash (PBS 3×5 min) • d. Biotin solution—incubation performed on a droplet, 30 min, RT • e. Wash (PBS 3×5 min) • 4. Increasing accessibility of DNA ends: • Incubation with 0.5-10 mM EDTA in water, 10 min-1 h, RT. • 5. Incorporation procedure: • Incorporation of unmodified and modified nucleotides (e.g. BrdU) using terminal deoxynucleotidyl transferase: • a. incubation is performed on a droplet in a humid chamber • b. samples are rinsed in wash buffers • 6. Blocking: • Incubation with 1-5% BSA solution in PBS (from 1 h to overnight in 4° C., RT). • 7. Incubation with primary antibodies—performed on a droplet in a humid chamber: • a. primary antibodies type 1 (e.g. mouse monoclonal against BrdU), preferred dilution 1:100 in 1-5% BSA, 1 h, RT • b. wash (PBS 3×5 min) • c. primary antibodies type 2 (e.g. rabbit polyclonal against BrdU), preferred dilution 1:100 in 1-5% BSA, 1 h, RT • d. wash (PBS 3×5 min) • 8. PLA procedure: • a. incubation with PLA Probes diluted in 1% BSA (37° C., 60 min, reaction on a droplet, in a humid chamber) in 40 μl of the reaction mixture per one coverslip: • 8 μl of PLA Probe MINUS stock (e.g. anti-mouse) • 8 μl of PLA Probe PLUS stock (e.g. anti-rabbit) • 24 μl of 1% BSA • b. wash samples with Wash Buffer A (2×5 min) • c. ligation—incubation (37° C., 30 min, reaction on a droplet, in a humid chamber) in 40 μl of the reaction mixture per one coverslip: • 8 μl of 5× Ligation stock (Sigma, Duolink, DUO82009), • 31 μl of ultrapure, RNAse/DNAse free, distilled water, • 1 μl of Ligase (1 U/μl) (Sigma, Duolink, DUO82027 or DUO82029) • d. wash samples with Wash Buffer A (2×2 min) • e. amplification—incubation (37° C., 100 min, reaction performed on a droplet, in a humid chamber) in 40 μl of the reaction mixture per one coverslip: • 8 μl of 5× Amplification stock (Sigma, Duolink, DUO82060 or DUO82011), • 31.5 μl of ultrapure, RNAse/DNAse free, distilled water, • 0.5 μl of Polymerase (10 U/μl) (Sigma, Duolink, DUO82028 or DUO82030) • 9. Imaging of samples in PBS using a fluorescence microscope. […]

## OO [H2O2]
Untreated less than 5%
  percentage of cells that show signs of heavy DNA damage (apoptotic cells) in the population: approximately 30%
± standard error of the mean
  average number of detectable regions of incorporation of BrdU (free ends of DNA) per cell: 31.57±8.61
